Test system: yeast genes (expressed mRNA)
Test: DNA chip measurement of expressed mRNA of yeast genes after culture with a toxic chemical substance
Assay type: cell-based, Saccharomyces cerevisiae S288C
Procedure, shortened: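 Expression is given as treated/untreated fluorescence ratio on a whole-genome yeast DNA chip, a ratio of two or more being significant. Log-phase S288C cultures in YPD at 25 °C received the chemical for 2 h at a dose that slows growth without killing. mRNA was reverse-transcribed with Cy3- or Cy5-dUTP.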

SMILES: CCCCC[C@H](O)CC(=O)CCc1ccc(O)c(OC)c1 [(13), Gingerol]
- The level of expressed mRNA in the presence of chemical substance/The level of expressed mRNA in the absence of chemical substance (yeast gene YKL065C, cultured two hours with substance): 3.0
- level of expressed mRNA in the presence of chemical substance / level in the absence of chemical substance (yeast gene YKL097C, cultured two hours with the chemical substance): 0.9
- level of expressed mRNA in the presence of chemical substance / level in the absence of chemical substance (yeast gene YKL100C, cultured two hours with the chemical substance): 1.3
- The level of expressed mRNA in the presence of chemical substance/The level of expressed mRNA in the absence of chemical substance (yeast gene YKL153W, cultured two hours with substance): 2.4
- The level of expressed mRNA in the presence of chemical substance/The level of expressed mRNA in the absence of chemical substance (yeast gene YKL194C, mitochondria-located protein gene, cultured two hours with substance): 1.1
- The level of expressed mRNA in the presence of chemical substance/The level of expressed mRNA in the absence of chemical substance (yeast gene YKL218C): 5.1
- The level of expressed mRNA in the presence of chemical substance/The level of expressed mRNA in the absence of chemical substance (yeast gene YKR018C, cultured two hours with substance): 3.0
- level of expressed mRNA in the presence of chemical substance / level in the absence of chemical substance (yeast gene YKR040C, cultured two hours with the chemical substance): 0.6
- The level of expressed mRNA in the presence of chemical substance/The level of expressed mRNA in the absence of chemical substance (yeast gene YKR046C, cultured two hours with substance): 2.8
- The level of expressed mRNA in the presence of chemical substance/The level of expressed mRNA in the absence of chemical substance (yeast gene YKR075C, cultured two hours with substance): 3.8
- The level of expressed mRNA in the presence of chemical substance/The level of expressed mRNA in the absence of chemical substance (yeast gene YLL041C, mitochondria-located protein gene, cultured two hours with substance): 1.0
- The level of expressed mRNA in the presence of chemical substance/The level of expressed mRNA in the absence of chemical substance (yeast gene YLR041W, cultured two hours with the chemical substance): 0.3
- The level of expressed mRNA in the presence of chemical substance/The level of expressed mRNA in the absence of chemical substance (yeast gene YLR217W, cultured two hours with substance): 3.8
- level of expressed mRNA in the presence of chemical substance / level in the absence of chemical substance (yeast gene YLR226W, cultured two hours with the chemical substance): 0.7
- level of expressed mRNA in the presence of chemical substance / level in the absence of chemical substance (yeast gene YLR338W, cultured two hours with the chemical substance): 1.2
- The level of expressed mRNA in the presence of chemical substance/The level of expressed mRNA in the absence of chemical substance (yeast gene YLR340W): 0.1
- The level of expressed mRNA in the presence of chemical substance/The level of expressed mRNA in the absence of chemical substance (yeast gene YLR350W, cultured two hours with substance): 4.5
- The level of expressed mRNA in the presence of chemical substance/The level of expressed mRNA in the absence of chemical substance (yeast gene YLR387C, cultured two hours with substance): 3.6
- The level of expressed mRNA in the presence of chemical substance/The level of expressed mRNA in the absence of chemical substance (yeast gene YLR388W): 0.1
- level of expressed mRNA in the presence of chemical substance / level in the absence of chemical substance (yeast gene YLR392C, cultured two hours with the chemical substance): 1.4
- level of expressed mRNA in the presence of chemical substance / level in the absence of chemical substance (yeast gene YLR415C, cultured two hours with the chemical substance): 1.0
- level of expressed mRNA in the presence of chemical substance / level in the absence of chemical substance (yeast gene YLR427W, cultured two hours with the chemical substance): 2.5
- level of expressed mRNA in the presence of chemical substance / level in the absence of chemical substance (yeast gene YML013W, cultured two hours with the chemical substance): 1.2
- level of expressed mRNA in the presence of chemical substance / level in the absence of chemical substance (yeast gene YML029W, cultured two hours with the chemical substance): 2.0
- level of expressed mRNA in the presence of chemical substance / level in the absence of chemical substance (yeast gene YML041C, cultured two hours with the chemical substance): 1.2
- The level of expressed mRNA in the presence of chemical substance/The level of expressed mRNA in the absence of chemical substance (yeast gene YML054C, cultured for two hours with substance): 2.8
- level of expressed mRNA in the presence of chemical substance / level in the absence of chemical substance (yeast gene YML079W, cultured two hours with the chemical substance): 1.6
- The level of expressed mRNA in the presence of chemical substance/The level of expressed mRNA in the absence of chemical substance (yeast gene YML100W, cultured for two hours with substance): 3.8
- level of expressed mRNA in the presence of chemical substance / level in the absence of chemical substance (yeast gene YMR068W, cultured two hours with the chemical substance): 1.4
- level of expressed mRNA in the presence of chemical substance / level in the absence of chemical substance (yeast gene YMR071C, cultured two hours with the chemical substance): 1.3
- The level of expressed mRNA in the presence of chemical substance/The level of expressed mRNA in the absence of chemical substance (yeast gene YMR095C, cultured two hours with substance): 3.4
- level of expressed mRNA in the presence of chemical substance / level in the absence of chemical substance (yeast gene YMR160W, cultured two hours with the chemical substance): 1.6
- The level of expressed mRNA in the presence of chemical substance/The level of expressed mRNA in the absence of chemical substance (yeast gene YMR191W, cultured two hours with substance): 3.4
- The level of expressed mRNA in the presence of chemical substance/The level of expressed mRNA in the absence of chemical substance (yeast gene YMR203W, mitochondria-located protein gene, cultured two hours with substance): 1.1
- The level of expressed mRNA in the presence of chemical substance/The level of expressed mRNA in the absence of chemical substance (yeast gene YMR210W, cultured two hours with the chemical substance, DNA chip fluorescence ratio): 1.0
- level of expressed mRNA in the presence of chemical substance / level in the absence of chemical substance (yeast gene YNL026W, cultured two hours with the chemical substance): 1.7
- level of expressed mRNA in the presence of chemical substance / level in the absence of chemical substance (yeast gene YNL058C, cultured two hours with the chemical substance): 0.6
- level of expressed mRNA in the presence of chemical substance / level in the absence of chemical substance (yeast gene YNL063W, cultured two hours with the chemical substance): 1.5
- The level of expressed mRNA in the presence of chemical substance/The level of expressed mRNA in the absence of chemical substance (yeast gene YNL069C): 0.1
- The level of expressed mRNA in the presence of chemical substance/The level of expressed mRNA in the absence of chemical substance (yeast gene YNL115C, cultured two hours with substance): 2.5
- The level of expressed mRNA in the presence of chemical substance/The level of expressed mRNA in the absence of chemical substance (yeast gene YNL155W, cultured two hours with substance): 4.4
- level of expressed mRNA in the presence of chemical substance / level in the absence of chemical substance (yeast gene YNL176C, cultured two hours with the chemical substance): 0.6
- level of expressed mRNA in the presence of chemical substance / level in the absence of chemical substance (yeast gene YNL194C, cultured two hours with the chemical substance): 1.5
- level of expressed mRNA in the presence of chemical substance / level in the absence of chemical substance (yeast gene YNL200C, cultured two hours with the chemical substance): 1.1
- The level of expressed mRNA in the presence of chemical substance/The level of expressed mRNA in the absence of chemical substance (yeast gene YNL208W, cultured two hours with substance): 1.7
- The level of expressed mRNA in the presence of chemical substance/The level of expressed mRNA in the absence of chemical substance (yeast gene YNL234W, cultured two hours with substance): 2.5
- The level of expressed mRNA in the presence of chemical substance/The level of expressed mRNA in the absence of chemical substance (yeast gene YNL241C, cultured for two hours with substance): 4.9
- level of expressed mRNA in the presence of chemical substance / level in the absence of chemical substance (yeast gene YNL253W, cultured two hours with the chemical substance): 1.1
- level of expressed mRNA in the presence of chemical substance / level in the absence of chemical substance (yeast gene YNL276C, cultured two hours with the chemical substance): 1.5
- level of expressed mRNA in the presence of chemical substance / level in the absence of chemical substance (yeast gene YNR051C, cultured two hours with the chemical substance): 2.1
- level of expressed mRNA in the presence of chemical substance / level in the absence of chemical substance (yeast gene YOL026C, cultured two hours with the chemical substance): 1.2
- The level of expressed mRNA in the presence of chemical substance/The level of expressed mRNA in the absence of chemical substance (yeast gene YOL030W, cultured two hours with the chemical substance): 1.7
- The level of expressed mRNA in the presence of chemical substance/The level of expressed mRNA in the absence of chemical substance (yeast gene YOL036W, cultured two hours with substance): 2.5
- The level of expressed mRNA in the presence of chemical substance/The level of expressed mRNA in the absence of chemical substance (yeast gene YOL039W): 0.1
- The level of expressed mRNA in the presence of chemical substance/The level of expressed mRNA in the absence of chemical substance (yeast gene YOL084W, cultured two hours with substance): 6.4
- The level of expressed mRNA in the presence of chemical substance/The level of expressed mRNA in the absence of chemical substance (yeast gene YOL120C): 0.1
- level of expressed mRNA in the presence of chemical substance / level in the absence of chemical substance (yeast gene YOR022C, cultured two hours with the chemical substance): 1.7
- level of expressed mRNA in the presence of chemical substance / level in the absence of chemical substance (yeast gene YOR087W, cultured two hours with the chemical substance): 1.2
- level of expressed mRNA in the presence of chemical substance / level in the absence of chemical substance (yeast gene YOR138C, cultured two hours with the chemical substance): 1.8
- The level of expressed mRNA in the presence of chemical substance/The level of expressed mRNA in the absence of chemical substance (yeast gene YOR152C, cultured two hours with substance): 7.4
- The level of expressed mRNA in the presence of chemical substance/The level of expressed mRNA in the absence of chemical substance (yeast gene YOR153W): 11.8
- The level of expressed mRNA in the presence of chemical substance/The level of expressed mRNA in the absence of chemical substance (yeast gene YOR173W, cultured two hours with substance): 3.8
- The level of expressed mRNA in the presence of chemical substance/The level of expressed mRNA in the absence of chemical substance (yeast gene YOR187W, mitochondria-located protein gene, cultured two hours with substance): 0.7
- level of expressed mRNA in the presence of chemical substance / level in the absence of chemical substance (yeast gene YOR253W, cultured two hours with the chemical substance): 0.5
- level of expressed mRNA in the presence of chemical substance / level in the absence of chemical substance (yeast gene YOR267C, cultured two hours with the chemical substance): 1.4
- level of expressed mRNA in the presence of chemical substance / level in the absence of chemical substance (yeast gene YOR325W, cultured two hours with the chemical substance): 0.6
- The level of expressed mRNA in the presence of chemical substance/The level of expressed mRNA in the absence of chemical substance (yeast gene YOR382W, cultured two hours with substance): 1.7
- The level of expressed mRNA in the presence of chemical substance/The level of expressed mRNA in the absence of chemical substance (yeast gene YOR385W, cultured two hours with the substance): 2.8
- level of expressed mRNA in the presence of chemical substance / level in the absence of chemical substance (yeast gene YPL005W, cultured two hours with the chemical substance): 1.2
- The level of expressed mRNA in the presence of chemical substance/The level of expressed mRNA in the absence of chemical substance (yeast gene YPL087W, cultured two hours with substance): 4.4
- level of expressed mRNA in the presence of chemical substance / level in the absence of chemical substance (yeast gene YPL150W, cultured two hours with the chemical substance): 2.1
- level of expressed mRNA in the presence of chemical substance / level in the absence of chemical substance (yeast gene YPL152W, cultured two hours with the chemical substance): 1.4
- level of expressed mRNA in the presence of chemical substance / level in the absence of chemical substance (yeast gene YPL168W, cultured two hours with the chemical substance): 1.0
- level of expressed mRNA in the presence of chemical substance / level in the absence of chemical substance (yeast gene YPL180W, cultured two hours with the chemical substance): 1.5
- level of expressed mRNA in the presence of chemical substance / level in the absence of chemical substance (yeast gene YPL188W, cultured two hours with the chemical substance): 0.9
- level of expressed mRNA in the presence of chemical substance / level in the absence of chemical substance (yeast gene YPL221W, cultured two hours with the chemical substance): 1.0
- The level of expressed mRNA in the presence of chemical substance/The level of expressed mRNA in the absence of chemical substance (yeast gene YPL222W, cultured two hours with substance): 3.0
- level of expressed mRNA in the presence of chemical substance / level in the absence of chemical substance (yeast gene YPL225W, cultured two hours with the chemical substance): 0.8
- The level of expressed mRNA in the presence of chemical substance/The level of expressed mRNA in the absence of chemical substance (yeast gene YPR037C, mitochondria-located protein gene, cultured two hours with substance): 1.0
- level of expressed mRNA in the presence of chemical substance / level in the absence of chemical substance (yeast gene YPR049C, cultured two hours with the chemical substance): 1.6
- The level of expressed mRNA in the presence of chemical substance/The level of expressed mRNA in the absence of chemical substance (yeast gene YPR134W, mitochondria-located protein gene, cultured two hours with substance): 1.1
- level of expressed mRNA in the presence of chemical substance / level in the absence of chemical substance (yeast gene YPR146C, cultured two hours with the chemical substance): 1.3
- level of expressed mRNA in the presence of chemical substance / level in the absence of chemical substance (yeast gene YPR148C, cultured two hours with the chemical substance): 1.2
- level of expressed mRNA in the presence of chemical substance / level in the absence of chemical substance (yeast gene YPR172W, cultured two hours with the chemical substance): 1.3

Source: patent US20100041089A1, “IMPROVED METHOD FOR DETECTING CHEMICAL […]” (priority 2006, published 2010)
